Experimental data reported in patent US20250195533A1, “COMBINATION THERAPIES FOR THE TREATMENT OF CANCER” (Erasca, Inc., priority 2020, published 2025).

Assays:
NCI-H2122 cells = assay: CellTiter-Glo cellular proliferation/viability assay, fixed concentration of KRAS G12C inhibitor; type: cell-based; conditions: Homo sapiens, NCI-H2122, 120 h, compound of Formula I alone, 5 days, read-out: 2D CTG IC50
NCI-H358 cells = assay: as above; type: cell-based; conditions: Homo sapiens, 120 h, compound of Formula I alone, 5 days, read-out: 2D CTG IC50
Description: The combination was studied by a cell viability assay. NCI-H358 cells were split onto a 96-well plate.

- IC50 (NCI-H2122 cells): 2780 nM
- IC50 (NCI-H358 cells): 168 nM
SMILES: COCOC[C@H]1C[C@H]2COc3c(Sc4cnc(N5CCC6(CC5)CO[C@@H](C)[C@H]6N)c(CO)n4)ccnc3N2C1 [The compound of Formula I]
